Legend:
Format in all cases: in vivo
[1] = system: indian jointvetch; test: Herbicidal activity test against upland field weeds (foliar treatment test); set-up: key to Foliar treatment herbicidal activity, Indian jointvetch: 0 (no control); 100 (complete control); conditions: 50 g ai/ha, scale 0-100
Summary of the method: (§1)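 Greenhouse-grown plants (30±5 °C, 14/10 h light/dark) foliar hand-sprayed with compound in 50% acetone, 0.1% Tween-20 at 50 or 75 g a.i./ha. Control visually scored 0 (none) to 100 (complete) versus untreated after 14 days, or 21 days if needed.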

[2] = system: velvetleaf; test: as above; set-up: key to Foliar treatment herbicidal activity, velvet leaf: 0 (no control); 100 (complete control); conditions: 50 g ai/ha; for pest or weed control at 50 g/ha: Abutilon theophrasti, scale 0-100, read-out: Foliar treatment herbicidal activity, velvet leaf; for Foliar treatment herbicidal activity, velvet leaf: scale 0-100
Summary of the method: as §1

[3] = system: quack grass; test: Herbicidal activity test against upland field weeds (soil treatment test); set-up: key to Soil treatment herbicidal activity, quack grass: 0 (no control); 100 (complete control); conditions: 50 g ai/ha, scale 0 (no control) to 100 (complete control)
Summary of the method: (§2)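 Pre-emergence soil surface spray, day after sowing, into sandy loam pots with fertilizer; compounds at 50 or 75 g a.i./ha in 50% acetone, 0.1% Tween-20. Greenhouse at 30±5 °C, 14/10 h light/dark; visual control rated 0–100 against untreated after 14 days (21 if needed).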

[4] = system: cocklebur; test: Herbicidal activity test against upland field weeds (foliar treatment test); set-up: key to Foliar treatment herbicidal activity, Cocklebur: 0 (no control); 100 (complete control); conditions: 50 g ai/ha, scale 0-100; for pest or weed control at 50 g/ha: Xanthium strumarium
Summary of the method: as §1

[5] = system: crabgrass; test: as above; conditions: 50 g ai/ha, scale 0-100; for pest or weed control at 50 g/ha: Digitaria sanguinalis
Summary of the method: as §1

[6] = system: rice; test: Phytotoxicity test for upland field crops (foliar treatment test); set-up: key: 0 (no harm); 9 (complete withered)
Summary of the method: (§3)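 Crops grown in greenhouse pots (30±5 °C, 14/10 h light) were foliar-sprayed with compound at 19–300 g a.i./ha in 33% acetone/0.1% Tween-20. Phytotoxicity scored 0 (no harm) to 9 (complete withering) versus untreated control at 7 and 14 days, 21 if needed.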

[7] = system: corn; test: as above; set-up: key: 0 (no harm); 9 (complete withered)
Summary of the method: as §3

[8] = system: cotton; test: as above; set-up: key: 0 (no harm); 9 (complete withered)
Summary of the method: as §3

[9] = system: wheat; test: as above; set-up: key: 0 (no harm); 9 (complete withered)
Summary of the method: as §3

[10] = system: soybean; test: as above; set-up: key: 0 (no harm); 9 (complete withered)
Summary of the method: as §3

[11] = system: barnyard grass; test: Herbicidal activity test against upland field weeds (soil treatment test); set-up: key to Soil treatment herbicidal activity, barnyard grass: 0 (no control); 100 (complete control); conditions: 50 g ai/ha, scale 0 (no control) to 100 (complete control)
Summary of the method: as §2

[12] = system: bindweed; test: Herbicidal activity test against upland field weeds (foliar treatment test); set-up: key to Foliar treatment herbicidal activity, Bindweed: 0 (no control); 100 (complete control); conditions: 50 g ai/ha, scale 0-100
Summary of the method: as §1

[13] = system: bindweed; test: Herbicidal activity test against upland field weeds (soil treatment test); set-up: key to Soil treatment herbicidal activity, Bindweed: 0 (no control); 100 (complete control); conditions: 50 g ai/ha, scale 0 (no control) to 100 (complete control)
Summary of the method: as §2

[14] = 50 g ai/ha, Rice (7 days after treatment)
[15] = 50 g ai/ha, Rice (14 days after treatment)
[16] = 100 g ai/ha, Rice (7 days after treatment)
[17] = 100 g ai/ha, Rice (14 days after treatment)
[18] = 50 g ai/ha, Corn (7 days after treatment)
[19] = 50 g ai/ha, Corn (14 days after treatment)
[20] = 100 g ai/ha, Corn (7 days after treatment)
[21] = 100 g ai/ha, Corn (14 days after treatment)
[22] = 50 g ai/ha, Cotton (7 days after treatment)
[23] = 50 g ai/ha, Cotton (14 days after treatment)
[24] = 100 g ai/ha, Cotton (7 days after treatment)
[25] = 100 g ai/ha, Cotton (14 days after treatment)
[26] = 50 g ai/ha, Wheat (7 days after treatment)
[27] = 50 g ai/ha, Wheat (14 days after treatment)
[28] = 100 g ai/ha, Wheat (7 days after treatment)
[29] = 100 g ai/ha, Wheat (14 days after treatment)
[30] = 50 g ai/ha, Soybean (7 days after treatment)
[31] = 50 g ai/ha, Soybean (14 days after treatment)
[32] = 100 g ai/ha, Soybean (7 days after treatment)
[33] = 100 g ai/ha, Soybean (14 days after treatment)

SMILES | Soil treatment herbicidal activity, quack grass [3] | Foliar treatment phytotoxicity, Rice [6, 14] | Foliar treatment phytotoxicity, Rice [6, 15] | Foliar treatment phytotoxicity, Rice [6, 16] | Foliar treatment phytotoxicity, Rice [6, 17] | Foliar treatment phytotoxicity, Corn [7, 18] | Foliar treatment phytotoxicity, Corn [7, 19] | Foliar treatment phytotoxicity, Corn [7, 20] | Foliar treatment phytotoxicity, Corn [7, 21] | Foliar treatment phytotoxicity, Cotton [8, 22] | Foliar treatment phytotoxicity, Cotton [8, 23] | Foliar treatment phytotoxicity, Cotton [8, 24] | Foliar treatment phytotoxicity, Cotton [8, 25] | Foliar treatment phytotoxicity, Wheat [9, 26] | Foliar treatment phytotoxicity, Wheat [9, 27] | Foliar treatment phytotoxicity, Wheat [9, 28] | Foliar treatment phytotoxicity, Wheat [9, 29] | Foliar treatment phytotoxicity, Soybean [10, 30] | Foliar treatment phytotoxicity, Soybean [10, 31] | Foliar treatment phytotoxicity, Soybean [10, 32] | further results
Cn1nnc(COCc2nc(C(F)F)ccc2C(=O)Nc2nnnn2C)n1 [Compound No. 2-84, 6-(difluoromethyl)-N-(1-methyl-1H-tetrazol-5-yl)-2-(((2-methyl-2H-tetrazol-5-yl)methoxy)methyl)nicotinamide] | 0 | 6 | 7 | 6 | 9 | 2 | 1 | 3 | 4 | 5 | 9 | 5 | 9 | 0 | 0 | 0 | 0 | 6 | 7 | 6 | pest or weed control at 50 g/ha [1]: 70%; pest or weed control at 50 g/ha [2]: 98%; pest or weed control at 50 g/ha [4]: 95%; pest or weed control at 50 g/ha [5]: 95%; Foliar treatment phytotoxicity, Soybean [10, 33]: 8; pest or weed control at 50 g/ha ([11]; Echinochloa crus-galli): 70%; pest or weed control at 50 g/ha [12]: 60%; pest or weed control at 50 g/ha [13]: 40%
Cn1nnc(COCc2nc(C(F)(F)F)ccc2C(=S)Nc2nnnn2C)n1 [Compound No. 2-106, N-(1-methyl-1H-tetrazol-5-yl)-2-(((2-methyl-2H-tetrazol-5-yl)methoxy)methyl)-6-(trifluoromethyl)pyridin-3-carbothioamide] | 0 | 6 | 7 | 6 | 8 | 5 | 4 | 6 | 7 | 5 | 9 | 5 | 9 | 0 | 0 | 0 | 0 | 5 | 8 | 6 | pest or weed control at 50 g/ha [1]: 80%; pest or weed control at 50 g/ha [2]: 95%; pest or weed control at 50 g/ha [4]: 95%; pest or weed control at 50 g/ha [5]: 70%; Foliar treatment phytotoxicity, Soybean [10, 33]: 8; Soil treatment herbicidal activity, barnyard grass [11]: 100; pest or weed control at 50 g/ha [12]: 40%; pest or weed control at 50 g/ha [13]: 98%
COC(=O)OC(C)N(C(=O)c1ccc(C(F)(F)F)nc1COCc1nnn(C)n1)c1nnnn1C (stereo not shown) [Compound No. 4-4, methyl(1-(N-(1-methyl-1H-tetrazol-5-yl)-2-(((2-methyl-2H-tetrazol-5-yl)methoxy)methyl)-6-(trifluoromethyl)nicotinamido)ethyl)carbonate] | 0 | 4 | 4 | 4 | 4 | 0 | 0 | 0 | 0 | 0 | 0 | 0 | 0 | 1 | 0 | 2 | 2 | 0 | 0 | 0 | Foliar treatment herbicidal activity, Indian jointvetch [1]: 100; Foliar treatment herbicidal activity, velvet leaf [2]: 100; Foliar treatment herbicidal activity, Cocklebur [4]: 98; Foliar treatment herbicidal activity, Crabgrass [5]: 98; Foliar treatment phytotoxicity, Soybean [10, 33]: 0; Soil treatment herbicidal activity, barnyard grass [11]: 0; Foliar treatment herbicidal activity, Bindweed [12]: 100; Soil treatment herbicidal activity, Bindweed [13]: 0
CCOC(=O)OC(C)N(C(=O)c1ccc(C(F)(F)F)nc1COCc1nnn(C)n1)c1nnnn1C (stereo not shown) [Compound No. 4-8, ethyl(1-(N-(1-methyl-1H-tetrazol-5-yl)-2-(((2-methyl-2H-tetrazol-5-yl)methoxy)methyl)-6-(trifluoromethyl)nicotinamido)ethyl)carbonate] | 0 | 0 | 0 | 0 | 0 | 0 | 0 | 0 | 0 | 0 | 0 | 0 | 0 | 2 | 1 | 2 | 2 | 0 | 0 | 0 | Foliar treatment herbicidal activity, Indian jointvetch [1]: 100; Foliar treatment herbicidal activity, velvet leaf [2]: 100; Foliar treatment herbicidal activity, Cocklebur [4]: 100; Foliar treatment herbicidal activity, Crabgrass [5]: 98; Foliar treatment phytotoxicity, Soybean [10, 33]: 0; Soil treatment herbicidal activity, barnyard grass [11]: 100; Foliar treatment herbicidal activity, Bindweed [12]: 100; Soil treatment herbicidal activity, Bindweed [13]: 0
